According to patent publication US9782434B2, “Methods of treating or preventing inflammation and hypersensitivity with oxidative reductive potential water solution” (Oculus Innovative Sciences, Inc., priority 2006, dated 2017):
Where two headings read alike, the source gives them in different places. Bridge positions count the residues as written; N and C are the ends. Square brackets hold non-standard residues; d marks the D form. Peptide text beside a SMILES is read from it. * marks the point of attachment. Ileψ(thiazoline)Cys = CC[C@H](C)[C@H](N)C1=N[C@H](C(=O)*)CS1; dOrn = NCCC[C@@H](N)C(=O)O

Assays:
[1] = system: B. atropheus spores, Pseudomonas aeruginosa, and Staphylococcus aureus; experiment: Bacterial suspension assay, test organisms overall; assay type: cell-based; conditions: 33 Units/ml; over the time periods tested
Protocol: Dermacyn is a ready to use product, therefore performing dilutions during testing was not required.
A purchased spore suspension of B. atropheus at 2.5×10^7/ml was used for testing. In addition fresh suspensions of Pseudomonas aeruginosa, and Staphylococcus aureus were prepared and measured using a spectrophotometer to ensure the titer was acceptable
Nine microliters of test substance was added to 100 ul of microbe suspension. The test mixture was held at 20° C. for the contact times of 20 seconds, 5 minutes, and 20 minutes. […] (entire mixture) was added to 9.0 ml of neutralizer for 20 minutes (this is the original neutralization tube or ONT) 1.0 ml of the neutralized test mixture was plated on Tryptic Soy Agar in duplicate for the 5 minute and 20 minute contact times. Additional dilutions and spread plates were used for the 20 second time point, to achieve countable plates.
All plates were incubated at 30° C.-35° C. for a total of 3 days and were evaluated after each day of incubation.

[2] = system: human diploid fibroblasts (HDFs); experiment: Cell viability, apoptosis and necrosis by flow cytometry; assay type: cell-based; conditions: 880 mM
Protocol: HP is known to be toxic to eukaryotic cells, increasing apoptosis and necrosis and reducing cellular viability. […] HDF cultures were obtained from three different foreskins, which were pooled and cryopreserved together for the purpose of this study. Only diploid cells were used for all experiments. […] Simultaneous analyses of these parameters were performed in the same cell populations by flow cytometry using: […] B) Annexin V-FITC; and C) Propidium iodide. FIG. 4A-4C disclose percentage values expressed as mean±SD (n=3).

[3] = system: human diploid fibroblasts (HDFs); conditions: 30 min, 500 μM
[4] = system: murine polychromatic erythrocytes
Text: The mammalian in vivo micronucleus test is used for the identification of substances which cause damage to chromosomes or the mitotic apparatus of murine polychromatic erythrocytes. This damage results in the formation of “micronuclei,” intracellular structures containing lagging chromosome fragments or isolated whole chromosomes. […] All mice were observed immediately after injection for any adverse reactions. […] On day 3, all mice were weighed and terminated.
The femurs were excised from the terminated mice, the bone marrow was extracted, and duplicate smear preparations were performed for each mouse. The bone marrow slides for each animal were read at 40× magnification. The ratio of polychromatic erythrocytes (PCE) to normochromatic erythrocytes (NCE), an index of bone marrow toxicity, was determined for each mouse by counting a total of at least 200 erythrocytes. Then a minimum of 2000 scoreable PCE per mouse were evaluated for the incidence of micronucleated polychromatic erythrocytes. Statistical analysis of the data were done using the Mann and Whitney test (at 5% risk threshold) from a statistical software package (Statview 5.0®, SAS Institute Inc., USA).

In the case of CC[C@H](C)[C@H](N)C1=N[C@H](C(=O)N[C@@H](CC(C)C)C(=O)N[C@H](CCC(=O)O)C(=O)N[C@H](C(=O)N[C@H]2CCCCNC(=O)[C@H](CC(N)=O)NC(=O)[C@@H](CC(=O)O)NC(=O)[C@H](Cc3cnc[nH]3)NC(=O)[C@@H](Cc3ccccc3)NC(=O)[C@H]([C@@H](C)CC)NC(=O)[C@@H](CCCN)NC2=O)[C@@H](C)CC)CS1 [Bacitracin] ({Ileψ(thiazoline)Cys}-L[dE]IK[dOrn]I[dF]H[dD]N; lactam 4-C), the “lowering of bacterial or spore populations” value [1] is reported as “no evidence of lowering the bacterial or spore populations”.

OO [HP, hydrogen peroxide] was tested, and the “Cell viability (7AAD)” value ([2]; 5 min) was 55%, the “necrosis, cells incorporating propidium iodide” value ([2]; 5 min) was 20% and the “Cell viability (7AAD)” value ([2]; 30 min) was 5%. The “necrosis, cells incorporating propidium iodide” value ([2]; 30 min) was 75%, the “increase in number of 8-OHdG adducts relative to control-treated or ORP water solution-treated cells” value [3] was “about 25 fold” and the “GAPDH RT-PCR product” value (human cell cultures) was “little if any GAPDH RT-PCR product”. For the same compound, the “RNA degradation, denaturing gel electrophoresis” value (human cell cultures) was “significant RNA degradation”.

With O=P1(N(CCCl)CCCl)NCCCO1 (centres unmarked) [cyclophosphamide] the PCE/NCE ratio ([4]; females, negative controls 1.02) was 0.73, the “number of polychromatic erythrocytes bearing micronuclei” value ([4]; males, negative controls 0.6) was 11.0 and the PCE/NCE ratio ([4]; males, negative controls 0.90) was 0.77.
